According to the supplement of paper PMC13380429:

Legend:
[1] = system: A549-ACE2 infected with SARS-CoV-2; test: cell count relative to DMSO; higher = less toxic; conditions: 24 h
A549-ACE2 [2] = test: phospholipidosis EC50; higher = less potent phospholipidosis inducer
HepG2 [3] = test: cell viability relative to DMSO; higher = less toxic; conditions: 72 h
Vero E6 [4] = test: as above; conditions: 72 h
U2OS [5] = test: as above; conditions: 72 h
Caco-2 [6] = test: as above; conditions: 72 h
HepG2 [7] = test: drug sensitivity score (DSS) for viability; higher = more toxic; extreme values may be limits of the assay; conditions: 72 h
Vero E6 [8] = test: as above; conditions: 72 h
U2OS [9] = test: as above; conditions: 72 h
Caco-2 [10] = test: as above; conditions: 72 h
[11] = system: A549-ACE2 infected with SARS-CoV-2; test: morphology score (similarity to uninfected cells); higher = more like uninfected cells; conditions: 24 h
HepG2 [12] = test: relative viability EC50 (midpoint between 100% and the lowest measured viability); higher = less toxic; conditions: 72 h
U2OS [13] = test: as above; conditions: 72 h
Caco-2 [14] = test: as above; conditions: 72 h
A549-ACE2 [15] = test: drug-induced phospholipidosis relative to tamoxifen; higher = more phospholipidosis
[16] = system: A549-ACE2 infected with SARS-CoV-2; test: SARS-CoV-2 infection rate relative to DMSO; higher = more infection; conditions: 24 h
Calu-3 [17] = test: cell viability relative to DMSO; higher = less toxic; conditions: 72 h
Calu-3 [18] = test: drug sensitivity score (DSS) for viability; higher = more toxic; extreme values may be limits of the assay; conditions: 72 h
Calu-3 [19] = test: relative viability EC50 (midpoint between 100% and the lowest measured viability); higher = less toxic; conditions: 72 h
Vero E6 [20] = test: as above; conditions: 72 h

N=C(NCCCCCCNC(=N)NC(=N)Nc1ccc(Cl)cc1)NC(=N)Nc1ccc(Cl)cc1 [chlorhexidine]
Conditions | SARS-CoV-2 infection rate [%] | cell count [%] | cell viability [%] | morphology score | phospholipidosis EC50 [µM]
A549-ACE2 [2], 24 h | – | – | – | – | 9.72
A549-ACE2 [2], 48 h | – | – | – | – | 7.36
Caco-2 [6], 1 nM | – | – | 99.3 | – | –
Caco-2 [6], 10 nM | – | – | 90 | – | –
Caco-2 [6], 100 nM | – | – | 98.1 | – | –
Caco-2 [6], 1000 nM | – | – | 100 | – | –
Caco-2 [6], 10000 nM | – | – | 16.4 | – | –
HepG2 [3], 1 nM | – | – | 101 | – | –
HepG2 [3], 10 nM | – | – | 103 | – | –
HepG2 [3], 100 nM | – | – | 87 | – | –
HepG2 [3], 1000 nM | – | – | 90.9 | – | –
HepG2 [3], 10000 nM | – | – | 10.1 | – | –
U2OS [5], 1 nM | – | – | 99.9 | – | –
U2OS [5], 10 nM | – | – | 101 | – | –
U2OS [5], 100 nM | – | – | 95.9 | – | –
U2OS [5], 1000 nM | – | – | 100 | – | –
U2OS [5], 10000 nM | – | – | 32.2 | – | –
Vero E6 [4], 1 nM | – | – | 96.5 | – | –
Vero E6 [4], 10 nM | – | – | 99 | – | –
Vero E6 [4], 100 nM | – | – | 97.9 | – | –
Vero E6 [4], 1000 nM | – | – | 95.2 | – | –
Vero E6 [4], 10000 nM | – | – | 56.1 | – | –
[1], 0.1 µM | – | 103 | – | – | –
[1], 0.3 µM | – | 99 | – | – | –
[1], 1 µM | – | 107 | – | – | –
[1], 3 µM | – | 106 | – | – | –
[11], 0.1 µM | – | – | – | -0.01 | –
[11], 0.3 µM | – | – | – | 0.17 | –
[11], 1 µM | – | – | – | 0.17 | –
[11], 3 µM | – | – | – | -0.05 | –
[16], 0.1 µM | 95 | – | – | – | –
[16], 0.3 µM | 90 | – | – | – | –
[16], 1 µM | 91 | – | – | – | –
[16], 3 µM | 93 | – | – | – | –

Conditions | drug sensitivity score | relative viability EC50 [µM]
Caco-2 [10] | 4.6 | –
Caco-2 [14] | – | 3.19
HepG2 [7] | 6.5 | –
HepG2 [12] | – | 2.32
U2OS [9] | 3.7 | –
U2OS [13] | – | 3.19
Vero E6 [8] | 3 | –

drug-induced phospholipidosis [%], A549-ACE2 [15]
Conditions | 0.3 µM | 0.833333 µM | 3.33333 µM | 6.66667 µM | 10 µM | 30 µM
24 h | -0.01 | -1.75 | 7.04 | 31.6 | 58.6 | 105
48 h | 3.12 | 2.84 | 15.7 | 40.3 | 57.2 | –
72 h | 3.95 | 2.67 | 18.9 | 39.3 | 61.2 | –

COc1ccc(/C=C/C(=O)/C=C(O)/C=C/c2ccc(OC)c(OC)c2)cc1OC [ASC-J9]
Conditions | SARS-CoV-2 infection rate [%] | cell count [%] | cell viability [%] | morphology score | phospholipidosis EC50 [µM]
A549-ACE2 [2], 24 h | – | – | – | – | 20
Caco-2 [6], 1 nM | – | – | 90.7 | – | –
Caco-2 [6], 10 nM | – | – | 92.8 | – | –
Caco-2 [6], 100 nM | – | – | 92.9 | – | –
Caco-2 [6], 1000 nM | – | – | 100 | – | –
Caco-2 [6], 10000 nM | – | – | 45.2 | – | –
Calu-3 [17], 1 nM | – | – | 96.5 | – | –
Calu-3 [17], 10 nM | – | – | 94.9 | – | –
Calu-3 [17], 100 nM | – | – | 110 | – | –
Calu-3 [17], 1000 nM | – | – | 108 | – | –
Calu-3 [17], 10000 nM | – | – | 81.9 | – | –
HepG2 [3], 1 nM | – | – | 118 | – | –
HepG2 [3], 10 nM | – | – | 106 | – | –
HepG2 [3], 100 nM | – | – | 111 | – | –
HepG2 [3], 1000 nM | – | – | 95.4 | – | –
HepG2 [3], 10000 nM | – | – | 55.8 | – | –
U2OS [5], 1 nM | – | – | 96.1 | – | –
U2OS [5], 10 nM | – | – | 97.5 | – | –
U2OS [5], 100 nM | – | – | 95.3 | – | –
U2OS [5], 1000 nM | – | – | 98.1 | – | –
U2OS [5], 10000 nM | – | – | 26.5 | – | –
Vero E6 [4], 1 nM | – | – | 99.2 | – | –
Vero E6 [4], 10 nM | – | – | 93.9 | – | –
Vero E6 [4], 100 nM | – | – | 103 | – | –
Vero E6 [4], 1000 nM | – | – | 101 | – | –
Vero E6 [4], 10000 nM | – | – | 103 | – | –
[1], 0.3 µM | – | 100 | – | – | –
[1], 3 µM | – | 101 | – | – | –
[1], 10 µM | – | 98 | – | – | –
[1], 30 µM | – | 70 | – | – | –
[11], 0.3 µM | – | – | – | 0.01 | –
[11], 3 µM | – | – | – | -0.06 | –
[11], 10 µM | – | – | – | 0.39 | –
[11], 30 µM | – | – | – | 0.56 | –
[16], 0.3 µM | 98 | – | – | – | –
[16], 3 µM | 97 | – | – | – | –
[16], 10 µM | 87 | – | – | – | –
[16], 30 µM | 25 | – | – | – | –

Conditions | drug sensitivity score | relative viability EC50 [µM]
Caco-2 [10] | 2.9 | –
Caco-2 [14] | – | 3.19
Calu-3 [18] | 0.3 | –
Calu-3 [19] | – | > 10
HepG2 [7] | 3 | –
U2OS [9] | 4.3 | –
U2OS [13] | – | 2.98
Vero E6 [8] | 0 | –
Vero E6 [20] | – | > 10

drug-induced phospholipidosis [%], A549-ACE2 [15]
Conditions | 0.3 µM | 0.833333 µM | 3.33333 µM | 6.66667 µM | 10 µM | 30 µM
24 h | 0.46 | -1.23 | 4.99 | 24.2 | 40.1 | 139
48 h | 1.84 | -1.1 | 1.58 | 8.23 | 13.3 | 45.5
72 h | 4.19 | -0.9 | 1.28 | 7.61 | 9.79 | 37.4

CN(C)CCOc1ccc(/C(=C(/CCCl)c2ccccc2)c2ccccc2)cc1 [toremifene]
Conditions | SARS-CoV-2 infection rate [%] | cell count [%] | cell viability [%] | morphology score | phospholipidosis EC50 [µM]
A549-ACE2 [2], 24 h | – | – | – | – | 15
A549-ACE2 [2], 48 h | – | – | – | – | 1.48
A549-ACE2 [2], 72 h | – | – | – | – | 1.65
Caco-2 [6], 1 nM | – | – | 100 | – | –
Caco-2 [6], 10 nM | – | – | 98.1 | – | –
Caco-2 [6], 100 nM | – | – | 105 | – | –
Caco-2 [6], 1000 nM | – | – | 92.3 | – | –
Caco-2 [6], 10000 nM | – | – | 39.8 | – | –
Calu-3 [17], 1 nM | – | – | 90.6 | – | –
Calu-3 [17], 10 nM | – | – | 106 | – | –
Calu-3 [17], 100 nM | – | – | 104 | – | –
Calu-3 [17], 1000 nM | – | – | 93.1 | – | –
Calu-3 [17], 10000 nM | – | – | 15.8 | – | –
HepG2 [3], 1 nM | – | – | 105 | – | –
HepG2 [3], 10 nM | – | – | 82.5 | – | –
HepG2 [3], 100 nM | – | – | 104 | – | –
HepG2 [3], 1000 nM | – | – | 103 | – | –
HepG2 [3], 10000 nM | – | – | 29.9 | – | –
U2OS [5], 1 nM | – | – | 97.6 | – | –
U2OS [5], 10 nM | – | – | 94.9 | – | –
U2OS [5], 100 nM | – | – | 99.4 | – | –
U2OS [5], 1000 nM | – | – | 91.3 | – | –
U2OS [5], 10000 nM | – | – | 66.7 | – | –
Vero E6 [4], 1 nM | – | – | 98.4 | – | –
Vero E6 [4], 10 nM | – | – | 101 | – | –
Vero E6 [4], 100 nM | – | – | 90.4 | – | –
Vero E6 [4], 1000 nM | – | – | 95.3 | – | –
Vero E6 [4], 10000 nM | – | – | 53.6 | – | –
[1], 0.1 µM | – | 100 | – | – | –
[1], 0.3 µM | – | 107 | – | – | –
[1], 1 µM | – | 107 | – | – | –
[1], 3 µM | – | 127 | – | – | –
[11], 0.1 µM | – | – | – | -0.1 | –
[11], 0.3 µM | – | – | – | 0.28 | –
[11], 1 µM | – | – | – | 0.36 | –
[11], 3 µM | – | – | – | 0.76 | –
[16], 0.1 µM | 105 | – | – | – | –
[16], 0.3 µM | 88 | – | – | – | –
[16], 1 µM | 89 | – | – | – | –
[16], 3 µM | 44 | – | – | – | –

Conditions | drug sensitivity score | relative viability EC50 [µM]
Caco-2 [10] | 4.6 | –
Caco-2 [14] | – | 2.13
Calu-3 [18] | 5.7 | –
Calu-3 [19] | – | 2.5
HepG2 [7] | 3.6 | –
HepG2 [12] | – | 3.4
U2OS [9] | 2.8 | –
Vero E6 [8] | 3.2 | –

drug-induced phospholipidosis [%], A549-ACE2 [15]
Conditions | 0.3 µM | 0.833333 µM | 3.33333 µM | 6.66667 µM | 10 µM | 30 µM
24 h | 8.6 | 44.5 | 103 | 115 | 116 | 416
48 h | 7.64 | 34.2 | 102 | 117 | 121 | –
72 h | 6.92 | 27.5 | 102 | 112 | 125 | –
